Assay results: article PMC5000617, “Antiproliferative and Pro-Apoptotic Effect of Novel Nitro-Substituted Hydroxynaphthanilides on Human Cancer Cell Lines” (International Journal of Molecular Sciences, 2016)

What was measured:
cyclin B1 = assay: Western blot of cyclin B1 in MCF-7 cells; assay type: cell-based, human; conditions: MCF-7, 24 h
Protocol: Additionally, the cell cycle analysis allows determining the presence of a subdiploid cell population as a characteristic marker of cells with fractional DNA content. A significant increase (p < 0.001) of the sub-G1 peak was found only after the treatment with 5 µM of compound 2 in THP-1 cells, where an approximately eight-fold increase was observed compared to the drug-free control (Figure 4).
(§1) For Western blotting, cells were washed with PBS and lysed in lysis buffer (100 mM Tris-HCl, pH = 6.8; 20% glycerol; 1% SDS) containing protease and phosphatase inhibitor cocktails. Protein concentration was measured using Roti®-Quant universal (Carl Roth, Karsruhe, Germany) according to the manufacturer’s instructions. Cell lysates were supplemented with bromophenol blue (final concentration 0.01% (w/v)) and β-mercaptoethanol (final concentration 1% (v/v)) prior to being heated for 5 min at 95 °C. Equal amounts of protein (10 μg) were loaded into a 12% polyacrylamide gel, separated by SDS-polyacrylamide gel electrophoresis and subsequently electrotransferred onto nitrocellulose membranes. Reversible Ponceau S. staining was performed to assess equal sample loading. […] The intensity of bands was semi-quantitatively analysed using the ImageJ software (National Institute of Mental Health, Bethesda, MD, USA).

THP-1 cells [1] = assay: WST-1 cell proliferation assay, THP-1; assay type: cell-based, human
Protocol: Initially, we examined the effect of six nitro-substituted hydroxynaphthanilides on the proliferation of human leukaemia and breast carcinoma cell lines, using Water Soluble Tetrazolium Salts-1 (WST-1) assay. For such analyses, THP-1 and MCF-7 cells were treated with the compounds at concentrations ranging from 0.5 to 20 μM for 24 h. […] The inhibitory effect of 2 and 6 was statistically significant (p < 0.001) starting from the concentration of 2.5 and 5 μM in THP-1 and MCF-7 cells, respectively. From the concentration-response curves, the IC50 values were determined.
(§2) THP-1 human monocytic leukemia cell line, MCF-7 human breast adenocarcinoma cells and 3T3-L1 mouse embryonic fibroblast were purchased from the European Collection of Cell Cultures (ECACC, Salisbury, UK). Cells were routinely tested for the absence of mycoplasma (Hoechst 33258 staining method). THP-1 cells were maintained in RPMI 1640 culture medium containing 2 mM L-glutamine; MCF-7 and 3T3-L1 cells were cultured in DMEM medium. All of the culture media were supplemented with 10% heat-inactivated FBS and antibiotics (100 U/mL penicillin and 100 μg/mL streptomycin). Cells were maintained at 37 °C in a humidified atmosphere containing 5% CO2.
(§3) Cell proliferation was evaluated using Cell Proliferation Reagent WST-1 (2-(4-iodophenyl)-3-(4-nitrophenyl)-5-(2,4-disulfophenyl)-2H-tetrazolium) (Roche Diagnostics, Mannheim, Germany) according to the manufacturer´s instructions. THP-1 (5 × 10^4 cells/100 μL culture medium per well), MCF-7 cells (1 × 10^4 cells/100 μL per well), and 3T3-L1 (2.5 × 10^3 cells/100 μL per well) were cultured in 96-well plates in triplicate. The measurement was performed using Synergy 2 Multi-Mode Microplate Reader (BioTek, Winooski, VT, USA) after 24 h incubation of cells with tested compounds dissolved in DMSO and subsequently in RPMI 1640 to final concentration ranging 0.5–20 μM in the assays. Cell viability was assessed by dye exclusion test. THP-1 (2 × 10^5 cells/mL per well) and MCF-7 cells (8 × 10^4 cells/mL per well) were incubated in 24-well plates with the indicated concentrations of compounds for 24 h. The number of viable cells was determined using hemocytometer after their staining with a solution of erythrosin B (0.1% erythrosin B (w/v) in PBS). The assays were conducted in triplicate. The IC50 and LC50 values were calculated from fitted concentration-response curves using GraphPad Prism 5.00 software (GraphPad Software, San Diego, CA, USA).

caspase 3 = assay: Western blot of caspase 3 in THP-1 cells; assay type: cell-based, human; conditions: THP-1, 10 μM, 24 h
Protocol: (§4) Most of the apoptotic signalling pathways are controlled by caspases that belong to a group of cysteine proteases. To assess whether compound 2 affects these signalling cascades and which pathway is activated (intrinsic or extrinsic), the activities of caspase 3, caspase 9, and caspase 8 were evaluated using Western blot analysis.
as §1

MCF-7 cells = assay: Flow cytometric cell cycle analysis (PI), MCF-7; assay type: cell-based, human; conditions: MCF-7, 24 h
Protocol: In order to determine at which stage of the cell cycle these compounds induce cell growth inhibition, flow cytometric analyses of cell cycle profiles in THP-1 and MCF-7 cell lines were performed. […] Therefore, THP-1 and MCF-7 cells were treated for 24 h with the compounds at concentrations of 2.5, 5, and 10 μM, respectively. In general, we detected a qualitatively similar effect on the distribution of cells in cell cycle phases following the treatment with compounds 2 and 6 in both leukaemia and breast carcinoma cells. […] This was in concert with a simultaneous decrease in the number of cells observed in the S phase compared to the drug-free control, while the percentage of cells in the G2/M phase remained unchanged.
THP-1 and sub-confluent MCF-7 cells were treated and subsequently incubated with indicated concentrations of compounds 2 and 6 for 24 h. After the incubation, cells were washed twice in PBS (pH 7.4), fixed in 70% ethanol and stored at −20 °C overnight. Fixed cells were collected by centrifugation, and supernatant was discarded. The cell pellet was washed twice with PBS and incubated with RNaseA (0.02 mg/mL) and 0.05% (v/v) Triton X-100 in PBS for 30 min at 37 °C. After the nuclei staining with propidium iodide (PI) (0.04 mg/mL), the cell cycle distribution was analysed using a flow cytometer Cell Lab Quanta SC (Beckman Coulter, Brea, CA, USA). The quantification of cell cycle distribution was carried out using software MultiCycle AV (Phoenix Flow System, San Diego, CA, USA). A total number of 2 × 10^4 cells was analysed per sample.

caspase 8 = assay: Western blot of caspase 8 in THP-1 cells; assay type: cell-based, human; conditions: THP-1, 24 h
Protocol: as §4, §1

THP-1 cells [2] = assay: Erythrosin B dye exclusion viability test, THP-1; assay type: cell-based
Protocol: (§5) Subsequently, for the comparison of the antiproliferative and cytotoxic effects we assessed the cell viability after 24 h treatment with compounds 1–6 in both tumour cell lines using the dye exclusion test.
as §2, §3

[3] = Erythrosin B dye exclusion viability test, THP-1; assay type: cell-based; conditions: human, THP-1 cells; erythrosin B exclusion test, 24 h, mean ± SD; read-out: THP-1 LC50
Protocol: as §5, §2, §3

3T3-L1 cells = assay: WST-1 cell proliferation assay, 3T3-L1 non-tumour cells; assay type: cell-based, mouse
Protocol: as §2, §3

In the case of `O=C(Nc1cccc([N+](=O)[O-])c1)c1cc2ccccc2cc1O` [Compound 2, 3-hydroxy-N-(3-nitrophenyl)naphthalene-2-carboxamide], the “total protein levels of cyclin B1” value (cyclin B1) is reported as “total protein levels of cyclin B1 were not changed”, the IC50 (THP-1 cells [1]; Homo sapiens, THP-1, WST-1, 24 h, 0.5-20 μM, mean ± SD) is reported as 3.06 ± 0.206 µM and the “effect on cell proliferation” value (THP-1 cells [1]; THP-1, 0.5-20 μM, 24 h) is reported as “inhibit cell growth in both cell lines in a dose-dependent manner”. The “concentration from which the inhibitory effect on proliferation was statistically significant (p < 0.001)” value (THP-1 cells [1]; THP-1, 24 h) was 2.5 µM, the “decrease of pro-caspase 3 (inactive form) compared to control” value (caspase 3) was “approximately two-fold” and the “increase of active caspase 3 level in comparison to control” value (caspase 3) was “approximately two-fold”. For the same compound, the “distribution of cells in cell cycle phases” value (MCF-7 cells) was “induced accumulation of cells in G1 phase”, the “sub-G1 / sub-diploid population” value (MCF-7 cells) was “did not induce any elevation of the sub-G1 peak” and the “level of active caspase 8” value (caspase 8) was “level of active caspase 8 was not altered”. The “LC50 compared to IC50” value (THP-1 cells [2]) was 2–3 fold, the CC50 at 24 h [3] was 7.91 ± 0.24 µM and the “effect on cell proliferation” value (3T3-L1 cells; 3T3-L1, 24 h) was “did not decrease cell growth at any of concentrations used”. It also gave an IC50 (3T3-L1 cells; Mus musculus, 3T3-L1, WST-1, 24 h, non-tumour cells, mean ± SD) greater than 20 µM.
